In one assay the test system is gel matrix. The experiment in a line: Gel matrix contraction in a culture system. Format: cell-based.
In the next assay the test system is cell modulus. To be noted: Wu, H. W. et al., Scanning, 1998; cited from earlier work.
For a further assay, the system named is elastin. The experiment in a line: Gene expression in BATs by quantitative RT-PCR. Format: cell-based, human. As to the method: (§1) Primary human tendon internal fibroblasts (HTIFs) were isolated from discarded human tendon tissue as described previously (Banes et al., J. Ortho Res., 6, 73-82, 1988). HTIFs from passage 2 to 4 were used in this study. BATs™ were fabricated at a cell density of 2 million cells/ml collagen gel suspension (Vitrogen). Cells were incubated at 37° C. for 24 h before addition of 100 pM IL-1β and inhibitors. BAT™ images were recorded with a scanner and automated imaging software, ScanFlex™ (Flexcell International Corp.). Medium was refreshed every 24 h. On day 5, BATs™ were collected, total RNA extracted with an RNeasy mini kit (QIAGen), cDNA synthesized with SuperScriptII (Invitrogen) and quantitative PCR carried out using a quantitative PCR kit from Ambion. The PCR products were separated on 2% agarose gels and the bands were quantitated in Photoshop. The elasticity of BATs™ was tested on day 5. BATs™ were subjected to a maximum stretch (20% elongation, 1 Hz for 1 h) and the BAT images were recorded for 24 h after stretch.

Assay [1] relates to β-actin. The experiment in a line: β-actin expression by quantitative RT-PCR. The format is cell-based, human. To be noted: 100 pM IL-1β; for reduction of β-actin message: 24 h post addition. As for the experimental part:
Primary HTIFs were isolated after surgery from discarded human tendon tissue as described previously (Banes et al., J. Ortho Res., 6, 73-82, 1988). HTIFs from passage 2 to 4 were used in this study. HTIFs were allowed to attach and spread for 24 h before addition of 100 pM IL-1β. Medium was refreshed every 24 h. […] Young's modulus of HTIFs was measured by aspirating a cell into the bore of a calibrated micropipette with a calibrated vacuum source. The cell-aspiration process was videotaped for subsequent data analysis to calculate the pipette bore size, the steady state pressure required to aspirate a segment of a cell into the pipette bore and the time constant for aspiration. Cytoskeleton change was monitored by rhodamine-phalloidin staining. The expression levels of β-actin was determined by quantitative RT-PCR. Total RNA was extracted with an RNeasy mini kit (QIAGen), cDNA was synthesized with SuperScriptII (Invitrogen) and quantitative PCR was carried out using 18S rRNA as an internal control (Ambion). The PCR products were separated on 2% agarose gels and pixel intensity of the bands was quantitated in Photoshop.

In assay [2] the test system is human tendon internal fibroblasts (HTIFs). The experiment in a line: Young's modulus of HTIFs by micropipette aspiration. The format is cell-based. Particulars: 100 pM IL-1β, day 5. As for the experimental part:
Primary HTIFs were isolated after surgery from discarded human tendon tissue as described previously (Banes et al., J. Ortho Res., 6, 73-82, 1988). HTIFs from passage 2 to 4 were used in this study. HTIFs were allowed to attach and spread for 24 h before addition of 100 pM IL-1β. Medium was refreshed every 24 h. On day 5, cells were collected for cell modulus measurement and gene expression analysis. Young's modulus of HTIFs was measured by aspirating a cell into the bore of a calibrated micropipette with a calibrated vacuum source. The cell-aspiration process was videotaped for subsequent data analysis to calculate the pipette bore size, the steady state pressure required to aspirate a segment of a cell into the pipette bore and the time constant for aspiration. Cytoskeleton change was monitored by rhodamine-phalloidin staining. The expression levels of β-actin was determined by quantitative RT-PCR. Total RNA was extracted with an RNeasy mini kit (QIAGen), cDNA was synthesized with SuperScriptII (Invitrogen) and quantitative PCR was carried out using 18S rRNA as an internal control (Ambion). The PCR products were separated on 2% agarose gels and pixel intensity of the bands was quantitated in Photoshop.

In assay [3] the test system is human tendon internal fibroblast (HTIF)-populated bioartificial tendons (BATs™). The experiment in a line: Contraction of HTIF-populated BATs (scanner imaging). Format: cell-based. Particulars: 100 pM IL-1β; 24 h post addition. As for the experimental part:
as §1

In assay [4] the test system is human tendon internal fibroblast (HTIF) populated bioartificial tendons (BATs™). The experiment in a line: Material properties (modulus) of BATs. Format: cell-based. Particulars: IL-1β treated BATs.
Assay [5] has as its system β-actin. The experiment in a line: Cytoskeleton change by rhodamine-phalloidin staining. The format is cell-based, human. Particulars: 100 pM IL-1β.
For the next assay, the system named is Collagen I. The experiment in a line: Gene expression in BATs by quantitative RT-PCR. Format: cell-based, human. To be noted: 100 pM IL-1β, day 5. As for the experimental part:
as §1

Another assay concerns MMPs 1, 2, 3. The experiment in a line: Gene expression in BATs by quantitative RT-PCR. Format: cell-based, human. Particulars: 100 pM IL-1β, day 5. As to the method:
as §1

The subject of assay [6] is human tendon internal fibroblast (HTIF)-populated bioartificial tendons (BATs™). The experiment in a line: Elasticity of BATs by length recovery after maximum stretch. The format is cell-based. Particulars: 100 pM IL-1β.
Excerpt: In order to find a better therapeutic method for tendon/ligament repair and/or replacement, several in vitro models for engineered tendon have been developed recently (Awad et al., J. Biomed. Mater Res., 51(2), 233-240, 2000). One of them is a BioArtificial Tendon (BAT™) model system utilizing tenocyte-populated molded collagen gels (Awad et al., J. Biomed. Mater Res., 51(2), 233-240, 2000). This 3D BAT™ system allows the testing of tenocyte responses to drugs, cytokines and mechanical loading but is too weak to replace conventional grafts materials. In an attempt to modulate the material properties of the cell-gel composite, the influence of IL-1β on the elasticity of human tendon internal fibroblast (HTIF)-populated bioartificial tendons (BATs™) was investigated. IL-1β has been reported to increase the expression of matrix metalloproteinases (MMPs) and elastin. It was hypothesized that IL-1β might increase the elasticity of BATs™ by up-regulating the expression of elastin and down-regulating matrix protein (Collagen I) expression. Gene expression was quantified with quantitative RT-PCR. The elasticity of BATs™ was determined by length recovery after stretch. The influence of IL-1β on the actin cytoskeleton and integrin attachment to matrix in BATs™ was tested +/− cytochalasin D or GRGDTP, respectively.
as §1, with “BATs™ were fabricated at a cell density of 2 million cells/ml collagen gel suspension (Vitrogen). Cells were incubated at 37° C. for 24 h before addition of 100 pM IL-1β and inhibitors.” left out, “Medium was refreshed every 24 h.” left out, “The elasticity of BATs™ was tested on day 5.” left out

Turning to `Nc1ncnc2c1ncn2[C@@H]1O[C@H](COP(=O)(O)OP(=O)(O)OP(=O)(O)O)[C@@H](O)[C@H]1O` [ATP, adenosine triphosphate], the gel matrix contraction result in the assay on gel matrix is listed as “retard gel matrix contraction”.

As for `C=C1[C@@H](C)[C@H]2[C@H](Cc3ccccc3)NC(=O)[C@]23[C@H](OC(C)=O)/C=C/[C@@](C)(O)C(=O)[C@@H](C)C/C=C/[C@H]3[C@@H]1O` [cytochalasin D], the cell modulus result with cell modulus is recorded as “decreased cell modulus by up to three fold”.

On to GRGDTP, for which, in the assay with elastin (100 μg/ml GRGDTP with 100 pM IL-1β), the “stimulation of elastin mRNA by IL-1β” value is reported as “reduced its stimulation by IL-1β”. Moreover, in the assay with elastin (100 μg/ml GRGDTP, without IL-1β), the “elastin mRNA level” value is recorded as “did not affect”.

For the compound interleukin-1beta [IL-1β], the “reduction of β-actin message” value in the assay with β-actin [1] (2D cultures) and in the assay on β-actin [1] (3D cultures (BATs)) was “more than 50%” throughout. Further, the “message level of β-actin” value with β-actin [1] (3D cultures, day 3) is recorded as “returned to normal”. Also, the “reduction of cell modulus” value in [2] (HTIFs from patient one) was 62%; in assay [2] (HTIFs from patient two) it was 45%. For the same compound, the “contraction of BATs” value in assay [3] was “reduced the contraction”. In addition, the “modulus of BATs” value in [4] is given as “reduced the modulus”. Besides, the “cells with disrupted cytoskeletal structure” value with β-actin [5] (2D cultures) is “about 20%”. The “protein level of β-actin” value in the assay on β-actin [5] (2D cultures, day 5) is given as “mostly recovered”; in the assay with β-actin [5] (rhodamine-phalloidin staining) it was “down regulated”. Besides, the “fluorescence intensity of rhodamine-phalloidin staining compared to control” value in the assay with β-actin [5] (3D bioartificial tendons, day 5) is listed as “much lower”. Besides, the “increase of intercellular space at the perpendicular direction of BATs” value in the assay on β-actin [5] (BATs, days 1 and 3) was “more than 100%”. Besides, the “expression of Collagen I” value in the assay with Collagen I is “down-regulated”. In addition, the “expression of MMPs 1, 2, 3” value in the assay with MMPs 1, 2, 3 was “up-regulated”. Besides, the expression of elastin result with elastin (100 pM IL-1β, BATs, day 5) is reported as “up-regulated”. Moreover, the “survival of maximum stretch” value in assay [6] (20% elongation, 1 Hz for 1 h, day 5) was “survived the maximum stretch”. In addition, the “time for elongated BATs to recover to original length post stretch” value in assay [6] (after maximum stretch (20% elongation, 1 Hz, 1 h)) came to 8 h. For the same compound, the “elasticity of BATs” value in assay [6] (tested on day 5) is reported as “increased the elasticity”.
